According to the kinase profiling compilation of Christmann-Franck et al. (2016):

Target: RAF1 (human) (UniProt P04049)
Experiment: radiometric filter-binding kinase assay, Kinase HotSpot
Conditions: compound 0.5 µM; ATP 10 µM

| SMILES | residual activity |
| --- | --- |
| Nc1nc(Nc2ccc(S(N)(=O)=O)cc2)nn1C(=O)c1c(F)cccc1F | 95.7% |
| CSc1nc(-c2ccc(F)cc2)c(-c2ccnc(NC(C)c3ccccc3)c2)[nH]1 (centres undefined) | 88.9% |
| CCCNC(=O)Nc1ccc(Oc2ncnc3cc(OC)c(OC)cc23)cc1Cl | 85.4% |
| O=C1Nc2cc(Br)ccc2/C1=C1/Nc2ccccc2/C1=N\O | 103% |

Target: SRPK2 (human) (UniProt P78362)
Sequence (P78362 whole entry, looked up): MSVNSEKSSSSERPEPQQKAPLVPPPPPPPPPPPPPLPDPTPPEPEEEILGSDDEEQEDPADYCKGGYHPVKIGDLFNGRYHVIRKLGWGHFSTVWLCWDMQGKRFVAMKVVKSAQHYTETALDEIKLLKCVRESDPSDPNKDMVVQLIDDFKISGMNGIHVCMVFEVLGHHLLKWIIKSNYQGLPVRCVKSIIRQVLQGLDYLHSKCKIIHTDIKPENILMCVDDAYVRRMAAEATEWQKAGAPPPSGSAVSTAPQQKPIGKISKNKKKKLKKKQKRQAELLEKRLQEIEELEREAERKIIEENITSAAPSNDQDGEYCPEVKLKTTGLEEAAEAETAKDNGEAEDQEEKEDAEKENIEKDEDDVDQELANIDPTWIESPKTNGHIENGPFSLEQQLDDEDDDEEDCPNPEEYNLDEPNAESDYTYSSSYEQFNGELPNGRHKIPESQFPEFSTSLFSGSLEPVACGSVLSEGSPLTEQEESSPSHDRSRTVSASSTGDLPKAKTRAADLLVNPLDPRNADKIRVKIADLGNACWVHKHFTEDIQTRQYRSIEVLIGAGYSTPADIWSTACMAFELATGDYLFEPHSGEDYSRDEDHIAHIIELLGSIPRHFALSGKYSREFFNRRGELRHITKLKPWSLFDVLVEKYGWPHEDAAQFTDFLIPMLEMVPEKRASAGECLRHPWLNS
Experiment: as above
Conditions: compound 0.5 µM; ATP 10 µM

| SMILES | residual activity |
| --- | --- |
| Nc1nc(Nc2ccc(S(N)(=O)=O)cc2)nn1C(=O)c1c(F)cccc1F | 54.9% |
| CSc1nc(-c2ccc(F)cc2)c(-c2ccnc(NC(C)c3ccccc3)c2)[nH]1 (centres undefined) | 94.4% |
| CCCNC(=O)Nc1ccc(Oc2ncnc3cc(OC)c(OC)cc23)cc1Cl | 91.1% |
| O=C1Nc2cc(Br)ccc2/C1=C1/Nc2ccccc2/C1=N\O | 63.9% |

Target: CDK1 CCNB1 (human) (UniProt P06493+P14635)
Experiment: as above
Conditions: compound 0.5 µM; ATP 10 µM

| SMILES | residual activity |
| --- | --- |
| Nc1nc(Nc2ccc(S(N)(=O)=O)cc2)nn1C(=O)c1c(F)cccc1F | 5.65% |
| CSc1nc(-c2ccc(F)cc2)c(-c2ccnc(NC(C)c3ccccc3)c2)[nH]1 (centres undefined) | 106% |
| CCCNC(=O)Nc1ccc(Oc2ncnc3cc(OC)c(OC)cc23)cc1Cl | 98% |
| O=C1Nc2cc(Br)ccc2/C1=C1/Nc2ccccc2/C1=N\O | 50.5% |

Target: BRSK2 (human) (UniProt Q8IWQ3)
Sequence (Q8IWQ3 whole entry, looked up): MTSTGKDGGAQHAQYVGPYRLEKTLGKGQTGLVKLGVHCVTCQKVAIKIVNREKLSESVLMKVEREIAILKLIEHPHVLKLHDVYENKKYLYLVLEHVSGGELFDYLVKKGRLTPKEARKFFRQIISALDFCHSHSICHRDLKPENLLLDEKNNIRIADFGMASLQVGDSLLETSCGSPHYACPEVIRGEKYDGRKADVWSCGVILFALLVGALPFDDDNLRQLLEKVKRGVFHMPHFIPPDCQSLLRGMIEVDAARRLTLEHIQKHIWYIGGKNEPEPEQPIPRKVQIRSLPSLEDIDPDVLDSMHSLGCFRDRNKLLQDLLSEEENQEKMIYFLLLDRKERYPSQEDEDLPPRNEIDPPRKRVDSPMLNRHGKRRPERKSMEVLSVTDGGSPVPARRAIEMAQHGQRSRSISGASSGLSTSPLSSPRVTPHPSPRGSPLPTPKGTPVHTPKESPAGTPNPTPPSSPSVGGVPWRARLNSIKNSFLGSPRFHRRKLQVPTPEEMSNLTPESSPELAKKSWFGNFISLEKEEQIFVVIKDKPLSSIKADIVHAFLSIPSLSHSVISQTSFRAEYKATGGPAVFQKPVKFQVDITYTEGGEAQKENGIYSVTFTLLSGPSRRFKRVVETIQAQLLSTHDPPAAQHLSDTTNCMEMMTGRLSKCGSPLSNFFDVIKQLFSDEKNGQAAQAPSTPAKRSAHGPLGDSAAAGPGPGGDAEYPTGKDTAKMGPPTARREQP
Experiment: as above
Conditions: compound 0.5 µM; ATP 10 µM

| SMILES | residual activity |
| --- | --- |
| Nc1nc(Nc2ccc(S(N)(=O)=O)cc2)nn1C(=O)c1c(F)cccc1F | 49% |
| CSc1nc(-c2ccc(F)cc2)c(-c2ccnc(NC(C)c3ccccc3)c2)[nH]1 (centres undefined) | 94.8% |
| CCCNC(=O)Nc1ccc(Oc2ncnc3cc(OC)c(OC)cc23)cc1Cl | 96.7% |
| O=C1Nc2cc(Br)ccc2/C1=C1/Nc2ccccc2/C1=N\O | 19.4% |

Target: GRK7 (human) (UniProt Q8WTQ7)
Experiment: as above
Conditions: compound 0.5 µM; ATP 10 µM

| SMILES | residual activity |
| --- | --- |
| Nc1nc(Nc2ccc(S(N)(=O)=O)cc2)nn1C(=O)c1c(F)cccc1F | 65.9% |
| CSc1nc(-c2ccc(F)cc2)c(-c2ccnc(NC(C)c3ccccc3)c2)[nH]1 (centres undefined) | 100% |
| CCCNC(=O)Nc1ccc(Oc2ncnc3cc(OC)c(OC)cc23)cc1Cl | 94.7% |
| O=C1Nc2cc(Br)ccc2/C1=C1/Nc2ccccc2/C1=N\O | 96.7% |

Target: CAMKK1 (human) (UniProt Q8N5S9)
Experiment: as above
Conditions: compound 0.5 µM; ATP 10 µM

| SMILES | residual activity |
| --- | --- |
| Nc1nc(Nc2ccc(S(N)(=O)=O)cc2)nn1C(=O)c1c(F)cccc1F | 86.4% |
| CSc1nc(-c2ccc(F)cc2)c(-c2ccnc(NC(C)c3ccccc3)c2)[nH]1 (centres undefined) | 104% |
| CCCNC(=O)Nc1ccc(Oc2ncnc3cc(OC)c(OC)cc23)cc1Cl | 93.1% |
| O=C1Nc2cc(Br)ccc2/C1=C1/Nc2ccccc2/C1=N\O | 50.5% |

Target: ACVRL1 (human) (UniProt P37023)
Sequence (P37023 whole entry, looked up): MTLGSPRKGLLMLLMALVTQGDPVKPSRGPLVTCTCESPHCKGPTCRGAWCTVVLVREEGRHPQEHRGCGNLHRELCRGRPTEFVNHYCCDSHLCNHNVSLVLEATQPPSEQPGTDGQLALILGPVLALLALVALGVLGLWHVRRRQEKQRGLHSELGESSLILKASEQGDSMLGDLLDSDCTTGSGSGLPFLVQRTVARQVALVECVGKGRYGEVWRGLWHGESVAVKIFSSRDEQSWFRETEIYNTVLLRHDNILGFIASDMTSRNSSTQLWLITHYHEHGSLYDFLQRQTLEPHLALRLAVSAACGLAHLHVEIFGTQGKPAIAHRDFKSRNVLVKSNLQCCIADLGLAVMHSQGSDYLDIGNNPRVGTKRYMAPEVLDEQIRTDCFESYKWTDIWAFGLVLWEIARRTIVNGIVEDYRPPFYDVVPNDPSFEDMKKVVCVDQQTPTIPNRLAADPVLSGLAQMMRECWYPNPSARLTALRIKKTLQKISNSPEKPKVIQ
Experiment: as above
Conditions: compound 0.5 µM; ATP 10 µM

| SMILES | residual activity |
| --- | --- |
| Nc1nc(Nc2ccc(S(N)(=O)=O)cc2)nn1C(=O)c1c(F)cccc1F | 88.5% |
| CSc1nc(-c2ccc(F)cc2)c(-c2ccnc(NC(C)c3ccccc3)c2)[nH]1 (centres undefined) | 92.2% |
| CCCNC(=O)Nc1ccc(Oc2ncnc3cc(OC)c(OC)cc23)cc1Cl | 100% |
| O=C1Nc2cc(Br)ccc2/C1=C1/Nc2ccccc2/C1=N\O | 103% |

Target: EPHA7 (human) (UniProt Q15375)
Experiment: as above
Conditions: compound 0.5 µM; ATP 10 µM

| SMILES | residual activity |
| --- | --- |
| Nc1nc(Nc2ccc(S(N)(=O)=O)cc2)nn1C(=O)c1c(F)cccc1F | 68.7% |
| CSc1nc(-c2ccc(F)cc2)c(-c2ccnc(NC(C)c3ccccc3)c2)[nH]1 (centres undefined) | 102% |
| CCCNC(=O)Nc1ccc(Oc2ncnc3cc(OC)c(OC)cc23)cc1Cl | 86.3% |
| O=C1Nc2cc(Br)ccc2/C1=C1/Nc2ccccc2/C1=N\O | 81.4% |

Target: PIM2 (human) (UniProt Q9P1W9)
Sequence (Q9P1W9 whole entry, looked up): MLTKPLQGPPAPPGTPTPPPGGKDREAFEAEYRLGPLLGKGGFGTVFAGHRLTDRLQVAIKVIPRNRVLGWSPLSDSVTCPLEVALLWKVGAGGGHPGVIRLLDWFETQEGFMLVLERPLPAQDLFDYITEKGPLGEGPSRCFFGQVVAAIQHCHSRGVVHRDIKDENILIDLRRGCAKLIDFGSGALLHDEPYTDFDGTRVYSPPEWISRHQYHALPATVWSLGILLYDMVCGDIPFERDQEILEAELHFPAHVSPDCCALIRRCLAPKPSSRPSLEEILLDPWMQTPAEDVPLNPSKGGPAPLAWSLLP
Experiment: as above
Conditions: compound 0.5 µM; ATP 10 µM

| SMILES | residual activity |
| --- | --- |
| Nc1nc(Nc2ccc(S(N)(=O)=O)cc2)nn1C(=O)c1c(F)cccc1F | 113% |
| CSc1nc(-c2ccc(F)cc2)c(-c2ccnc(NC(C)c3ccccc3)c2)[nH]1 (centres undefined) | 87.9% |
| CCCNC(=O)Nc1ccc(Oc2ncnc3cc(OC)c(OC)cc23)cc1Cl | 101% |
| O=C1Nc2cc(Br)ccc2/C1=C1/Nc2ccccc2/C1=N\O | 95.5% |

Target: STK17A (human) (UniProt Q9UEE5)
Experiment: as above
Conditions: compound 0.5 µM; ATP 10 µM

| SMILES | residual activity |
| --- | --- |
| Nc1nc(Nc2ccc(S(N)(=O)=O)cc2)nn1C(=O)c1c(F)cccc1F | 83.9% |
| CSc1nc(-c2ccc(F)cc2)c(-c2ccnc(NC(C)c3ccccc3)c2)[nH]1 (centres undefined) | 97.8% |
| CCCNC(=O)Nc1ccc(Oc2ncnc3cc(OC)c(OC)cc23)cc1Cl | 99% |
| O=C1Nc2cc(Br)ccc2/C1=C1/Nc2ccccc2/C1=N\O | 49.2% |

Target: MST4 (human) (UniProt Q9P289)
Experiment: as above
Conditions: compound 0.5 µM; ATP 10 µM

| SMILES | residual activity |
| --- | --- |
| Nc1nc(Nc2ccc(S(N)(=O)=O)cc2)nn1C(=O)c1c(F)cccc1F | 64.2% |
| CSc1nc(-c2ccc(F)cc2)c(-c2ccnc(NC(C)c3ccccc3)c2)[nH]1 (centres undefined) | 101% |
| CCCNC(=O)Nc1ccc(Oc2ncnc3cc(OC)c(OC)cc23)cc1Cl | 86.9% |
| O=C1Nc2cc(Br)ccc2/C1=C1/Nc2ccccc2/C1=N\O | 122% |

Target: LTK (human) (UniProt P29376)
Experiment: as above
Conditions: compound 0.5 µM; ATP 10 µM

| SMILES | residual activity |
| --- | --- |
| Nc1nc(Nc2ccc(S(N)(=O)=O)cc2)nn1C(=O)c1c(F)cccc1F | 85.8% |
| CSc1nc(-c2ccc(F)cc2)c(-c2ccnc(NC(C)c3ccccc3)c2)[nH]1 (centres undefined) | 83.6% |
| CCCNC(=O)Nc1ccc(Oc2ncnc3cc(OC)c(OC)cc23)cc1Cl | 95.7% |
| O=C1Nc2cc(Br)ccc2/C1=C1/Nc2ccccc2/C1=N\O | 89.3% |

Target: HCK (human) (UniProt P08631)
Sequence (P08631 whole entry, looked up): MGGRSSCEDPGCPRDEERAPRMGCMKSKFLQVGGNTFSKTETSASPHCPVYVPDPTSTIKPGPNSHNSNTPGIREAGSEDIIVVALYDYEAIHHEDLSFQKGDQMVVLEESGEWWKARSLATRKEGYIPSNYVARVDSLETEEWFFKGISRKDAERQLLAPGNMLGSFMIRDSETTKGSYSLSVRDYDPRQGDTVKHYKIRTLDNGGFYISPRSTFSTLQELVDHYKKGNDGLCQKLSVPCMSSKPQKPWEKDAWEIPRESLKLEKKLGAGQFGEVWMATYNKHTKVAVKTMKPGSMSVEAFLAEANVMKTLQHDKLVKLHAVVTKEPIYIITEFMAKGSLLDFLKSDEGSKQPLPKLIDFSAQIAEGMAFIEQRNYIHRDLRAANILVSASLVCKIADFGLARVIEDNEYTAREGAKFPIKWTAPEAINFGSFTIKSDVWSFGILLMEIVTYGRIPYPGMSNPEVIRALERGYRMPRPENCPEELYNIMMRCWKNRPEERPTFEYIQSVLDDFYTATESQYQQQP
Experiment: as above
Conditions: compound 0.5 µM; ATP 10 µM

| SMILES | residual activity |
| --- | --- |
| Nc1nc(Nc2ccc(S(N)(=O)=O)cc2)nn1C(=O)c1c(F)cccc1F | 86.2% |
| CSc1nc(-c2ccc(F)cc2)c(-c2ccnc(NC(C)c3ccccc3)c2)[nH]1 (centres undefined) | 83.5% |
| CCCNC(=O)Nc1ccc(Oc2ncnc3cc(OC)c(OC)cc23)cc1Cl | 88.7% |
| O=C1Nc2cc(Br)ccc2/C1=C1/Nc2ccccc2/C1=N\O | 13.3% |

Target: ADRBK2 (human) (UniProt P35626)
Experiment: as above
Conditions: compound 0.5 µM; ATP 10 µM

| SMILES | residual activity |
| --- | --- |
| Nc1nc(Nc2ccc(S(N)(=O)=O)cc2)nn1C(=O)c1c(F)cccc1F | 87.2% |
| CSc1nc(-c2ccc(F)cc2)c(-c2ccnc(NC(C)c3ccccc3)c2)[nH]1 (centres undefined) | 96.4% |
| CCCNC(=O)Nc1ccc(Oc2ncnc3cc(OC)c(OC)cc23)cc1Cl | 96.6% |
| O=C1Nc2cc(Br)ccc2/C1=C1/Nc2ccccc2/C1=N\O | 104% |

Target: STK11 (human) (UniProt Q15831)
Experiment: as above
Conditions: compound 0.5 µM; ATP 10 µM

| SMILES | residual activity |
| --- | --- |
| Nc1nc(Nc2ccc(S(N)(=O)=O)cc2)nn1C(=O)c1c(F)cccc1F | 85.8% |
| CSc1nc(-c2ccc(F)cc2)c(-c2ccnc(NC(C)c3ccccc3)c2)[nH]1 (centres undefined) | 95.4% |
| CCCNC(=O)Nc1ccc(Oc2ncnc3cc(OC)c(OC)cc23)cc1Cl | 87.3% |
| O=C1Nc2cc(Br)ccc2/C1=C1/Nc2ccccc2/C1=N\O | 42.1% |

Target: MLTK (human) (UniProt Q9NYL2)
Experiment: as above
Conditions: compound 0.5 µM; ATP 10 µM

| SMILES | residual activity |
| --- | --- |
| Nc1nc(Nc2ccc(S(N)(=O)=O)cc2)nn1C(=O)c1c(F)cccc1F | 100% |
| CSc1nc(-c2ccc(F)cc2)c(-c2ccnc(NC(C)c3ccccc3)c2)[nH]1 (centres undefined) | 85.7% |
| CCCNC(=O)Nc1ccc(Oc2ncnc3cc(OC)c(OC)cc23)cc1Cl | 103% |
| O=C1Nc2cc(Br)ccc2/C1=C1/Nc2ccccc2/C1=N\O | 69% |

Target: CDK1 CCNA2 (human) (UniProt P06493+P20248)
Experiment: as above
Conditions: compound 0.5 µM; ATP 10 µM

| SMILES | residual activity |
| --- | --- |
| Nc1nc(Nc2ccc(S(N)(=O)=O)cc2)nn1C(=O)c1c(F)cccc1F | 10.3% |
| CSc1nc(-c2ccc(F)cc2)c(-c2ccnc(NC(C)c3ccccc3)c2)[nH]1 (centres undefined) | 78% |
| CCCNC(=O)Nc1ccc(Oc2ncnc3cc(OC)c(OC)cc23)cc1Cl | 97.7% |
| O=C1Nc2cc(Br)ccc2/C1=C1/Nc2ccccc2/C1=N\O | 59.7% |

Target: PAK6 (human) (UniProt Q9NQU5)
Experiment: as above
Conditions: compound 0.5 µM; ATP 10 µM

| SMILES | residual activity |
| --- | --- |
| Nc1nc(Nc2ccc(S(N)(=O)=O)cc2)nn1C(=O)c1c(F)cccc1F | 101% |
| CSc1nc(-c2ccc(F)cc2)c(-c2ccnc(NC(C)c3ccccc3)c2)[nH]1 (centres undefined) | 93.5% |
| CCCNC(=O)Nc1ccc(Oc2ncnc3cc(OC)c(OC)cc23)cc1Cl | 106% |
| O=C1Nc2cc(Br)ccc2/C1=C1/Nc2ccccc2/C1=N\O | 86.3% |

Target: RPS6KB2 (human) (UniProt Q9UBS0)
Sequence (Q9UBS0 whole entry, looked up): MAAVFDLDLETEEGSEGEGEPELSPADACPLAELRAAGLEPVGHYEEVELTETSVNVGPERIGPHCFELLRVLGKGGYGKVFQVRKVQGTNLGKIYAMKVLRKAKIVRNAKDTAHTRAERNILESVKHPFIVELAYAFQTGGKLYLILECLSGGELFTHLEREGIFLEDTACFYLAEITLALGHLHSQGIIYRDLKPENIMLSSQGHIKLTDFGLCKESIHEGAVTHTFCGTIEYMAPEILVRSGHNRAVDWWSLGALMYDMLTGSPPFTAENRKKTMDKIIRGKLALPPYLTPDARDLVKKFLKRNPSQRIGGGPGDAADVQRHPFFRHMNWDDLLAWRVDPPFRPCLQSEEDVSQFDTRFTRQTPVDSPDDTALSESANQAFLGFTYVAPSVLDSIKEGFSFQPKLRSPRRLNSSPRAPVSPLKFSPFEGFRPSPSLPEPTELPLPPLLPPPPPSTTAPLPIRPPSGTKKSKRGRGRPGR
Experiment: as above
Conditions: compound 0.5 µM; ATP 10 µM

| SMILES | residual activity |
| --- | --- |
| Nc1nc(Nc2ccc(S(N)(=O)=O)cc2)nn1C(=O)c1c(F)cccc1F | 104% |
| CSc1nc(-c2ccc(F)cc2)c(-c2ccnc(NC(C)c3ccccc3)c2)[nH]1 (centres undefined) | 92.8% |
| CCCNC(=O)Nc1ccc(Oc2ncnc3cc(OC)c(OC)cc23)cc1Cl | 104% |
| O=C1Nc2cc(Br)ccc2/C1=C1/Nc2ccccc2/C1=N\O | 100% |

Target: EPHA2 (human) (UniProt P29317)
Sequence (P29317 whole entry, looked up): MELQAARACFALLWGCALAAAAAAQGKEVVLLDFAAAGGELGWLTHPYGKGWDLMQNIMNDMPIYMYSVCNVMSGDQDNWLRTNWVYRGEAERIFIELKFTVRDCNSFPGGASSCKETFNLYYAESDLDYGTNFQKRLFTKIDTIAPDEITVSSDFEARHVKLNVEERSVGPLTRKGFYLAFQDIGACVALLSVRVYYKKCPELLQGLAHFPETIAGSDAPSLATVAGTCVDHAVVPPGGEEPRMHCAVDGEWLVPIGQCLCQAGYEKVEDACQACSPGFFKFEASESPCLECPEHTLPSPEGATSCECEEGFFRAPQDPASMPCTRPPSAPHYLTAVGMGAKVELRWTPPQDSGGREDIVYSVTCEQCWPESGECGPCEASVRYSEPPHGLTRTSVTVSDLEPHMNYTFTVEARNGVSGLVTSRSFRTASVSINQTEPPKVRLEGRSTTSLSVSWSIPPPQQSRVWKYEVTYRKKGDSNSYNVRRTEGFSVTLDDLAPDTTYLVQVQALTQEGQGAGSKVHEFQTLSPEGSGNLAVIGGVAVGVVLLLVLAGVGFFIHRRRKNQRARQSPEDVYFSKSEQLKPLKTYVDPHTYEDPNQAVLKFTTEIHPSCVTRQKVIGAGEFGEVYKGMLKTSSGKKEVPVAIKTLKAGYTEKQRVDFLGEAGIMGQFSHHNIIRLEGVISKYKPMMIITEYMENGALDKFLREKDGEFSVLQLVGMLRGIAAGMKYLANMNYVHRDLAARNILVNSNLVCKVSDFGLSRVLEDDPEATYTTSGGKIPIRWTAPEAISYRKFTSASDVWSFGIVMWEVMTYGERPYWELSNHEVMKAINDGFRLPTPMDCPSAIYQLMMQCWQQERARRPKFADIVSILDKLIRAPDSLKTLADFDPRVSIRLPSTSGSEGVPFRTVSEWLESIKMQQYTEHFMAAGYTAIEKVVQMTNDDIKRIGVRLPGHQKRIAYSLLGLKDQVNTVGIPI
Experiment: as above
Conditions: compound 0.5 µM; ATP 10 µM

| SMILES | residual activity |
| --- | --- |
| Nc1nc(Nc2ccc(S(N)(=O)=O)cc2)nn1C(=O)c1c(F)cccc1F | 80.9% |
| CSc1nc(-c2ccc(F)cc2)c(-c2ccnc(NC(C)c3ccccc3)c2)[nH]1 (centres undefined) | 98.8% |
| CCCNC(=O)Nc1ccc(Oc2ncnc3cc(OC)c(OC)cc23)cc1Cl | 104% |
| O=C1Nc2cc(Br)ccc2/C1=C1/Nc2ccccc2/C1=N\O | 70.9% |

Target: IRAK1 (human) (UniProt P51617)
Sequence (P51617 whole entry, looked up): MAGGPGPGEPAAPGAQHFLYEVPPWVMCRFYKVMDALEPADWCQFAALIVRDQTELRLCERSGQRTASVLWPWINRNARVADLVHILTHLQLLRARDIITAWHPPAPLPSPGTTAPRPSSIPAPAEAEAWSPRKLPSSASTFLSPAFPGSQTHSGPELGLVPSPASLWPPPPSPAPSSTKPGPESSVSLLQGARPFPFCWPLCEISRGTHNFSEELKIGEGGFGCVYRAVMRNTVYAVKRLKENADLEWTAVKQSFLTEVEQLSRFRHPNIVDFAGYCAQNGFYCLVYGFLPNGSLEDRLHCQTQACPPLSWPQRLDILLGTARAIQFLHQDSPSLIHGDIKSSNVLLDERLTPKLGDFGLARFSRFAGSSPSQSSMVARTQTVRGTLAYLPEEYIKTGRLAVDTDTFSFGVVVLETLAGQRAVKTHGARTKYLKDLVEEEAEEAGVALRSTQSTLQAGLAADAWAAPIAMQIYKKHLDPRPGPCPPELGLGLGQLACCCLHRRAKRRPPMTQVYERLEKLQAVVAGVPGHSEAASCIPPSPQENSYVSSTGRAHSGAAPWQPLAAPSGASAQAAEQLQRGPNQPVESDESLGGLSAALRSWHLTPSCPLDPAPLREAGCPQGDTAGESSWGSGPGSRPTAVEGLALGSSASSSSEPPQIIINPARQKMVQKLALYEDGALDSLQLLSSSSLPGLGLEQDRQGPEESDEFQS
Experiment: as above
Conditions: compound 0.5 µM; ATP 10 µM

| SMILES | residual activity |
| --- | --- |
| Nc1nc(Nc2ccc(S(N)(=O)=O)cc2)nn1C(=O)c1c(F)cccc1F | 89.8% |
| CSc1nc(-c2ccc(F)cc2)c(-c2ccnc(NC(C)c3ccccc3)c2)[nH]1 (centres undefined) | 103% |
| CCCNC(=O)Nc1ccc(Oc2ncnc3cc(OC)c(OC)cc23)cc1Cl | 106% |
| O=C1Nc2cc(Br)ccc2/C1=C1/Nc2ccccc2/C1=N\O | 103% |
